In one data set the test system is Vero cells. Nature of the data set: cells. The data set is classed as cell-based. As to the method: (§1) The cytotoxicity testing as performed herein is a standard technique. Briefly, cells are seeded in 96-well plates at various concentrations (dependent on cell type, duration of assay), typically at 5×10^3 cells per well, in the presence of increasing concentrations of the test compound (0, 1, 3, 10, 33, and 100 μM). After three (Vero cells), or four (CEM cells), or five (PBM cells) day-incubation, cell viability and mitochondrial activity are measured by adding the MTT-dye (Promega), followed by a 8 hours incubation. Afterwards the plates containing the dye are fixed by adding a stop-solution followed by another eight hour incubation. Finally, absorbance is read at 570 nm. Such methodologies are well described and available from the manufacturer (Promega).

For a further data set, the system named is PBM cells. Nature of the data set: cells. In kind it is cell-based, human. The method, then: as §1
Another data set deals with CEM cells. The experiment in a line: cells. In kind it is cell-based, human. The method, then: as §1
Data set [1] has as its system human malignant T and B cells and various tumor cell lines. The experiment in a line: Toxicity profile against human malignant T and B cells and various tumor cell lines (MTT, IC50). The data set is classed as cell-based. To be noted: for IC50: MTT assay, 3-5 days. The method, then: as §1, with “Cytotoxicity” for “The cytotoxicity”, “here are” for “herein is a”, “techniques.” for “technique.”, “Depending on the cell-type incubation with test compound can vary in time, but is usually within the range of 3 to 5 days. Cell” for “After three (Vero cells), or four (CEM cells), or five (PBM cells) day-incubation, cell”, “eight” for “a 8”, “hours of” for “hours”
In order to explore the complete potential of this compound, a set of human malignant T and B cells and various tumor cell lines were incubated with […] at varying concentrations, and after the absorbance was read, an IC50 value was calculated. As a control, Ara-C, 5FU, and cyclo-heximide was taken alongside (Table 26).
On the technique in general: Tetrazolium dyes change colour on reduction, which living cells bring about.

The subject of the next data set is HCV replicon. The experiment in a line: HCV replicon system in Huh7 cells, replicon RNA by Q-RT-PCR (HCV ΔCt, ΔΔCt). In kind it is cell-based, hepatitis C virus. To be noted: Table 24. A general note: In antiviral work, replicon cells carry a viral genome segment that copies itself.
Data set [2] relates to rRNA (host RNA polymerase I product). Nature of the data set: rRNA ΔCt in Huh7 replicon cells (effect on host RNA polymerases). To be noted: Table 24, average of n. The text has this: In a typical setting, a compound might reduce both the host RNA polymerase activity and the replicon-encoded polymerase activity. Therefore, quantification of rRNA (or any other host RNA polymerase I product) or beta-actin mRNA (or any other host RNA polymerase II) and comparison with RNA levels of the no-drug control is a relative measurement of the effect of the test compound on host RNA polymerases.
With the availability of both the HCV ΔCt data and the rRNA ΔCt, a specificity parameter can be introduced. This parameter is obtained by subtracting both ΔCt values from each other.

Data set [3] relates to SUDHL-1 cells (human anaplastic large T-cell lymphoma cell line). The experiment in a line: Prevention of β-D-GA-related cytotoxicity by natural nucleosides, SUDHL-1 cells. In kind it is cell-based. As to the method: The prevention of β-D-GA-related cytotoxicity in CEM cells (human T-cell lymphoma) and in the SUDHL-1 cells (human anaplastic large T-cell lymphoma cell line) was studied by adding natural nucleosides. This experiment was initiated by adding 50 μM of natural nucleosides into the media, together with increasing concentration of β-D-GA. CEM cells were seeded at 2500 cells per well and incubated for 4 days (=fast growing cell line with a doubling time of 1.3 days). SUDHL-1 cells were seeded at 10,000 cells/well, and incubated for 3 days (=slow growing cell line, doubling time 3 days). The result of this experiment is plotted in FIG. 4.

The subject of data set [4] is Influenza A (H3N2). Nature of the data set: microbe, parasite or virus in culture. To be noted: Influenza A virus, H3N2, MDCK; Initial Test, Neutral Red. The data set is classed as cell-based.
Data set [5] relates to Influenza A (H3N2). The experiment in a line: microbe, parasite or virus in culture. In kind it is cell-based. To be noted: Influenza A virus, H3N2, MDCK; Initial Test, CPE Inhibition (Visual).
The test system of data set [6] is Respiratory Syncytial Virus A. Nature of the data set: microbe, parasite or virus in culture. The data set is classed as cell-based, Respiratory Syncytial Virus strain A2.
For data set [7], the system named is Influenza B. The experiment in a line: microbe, parasite or virus in culture. In kind it is cell-based. To be noted: Influenza B virus, MDCK; Initial Test, CPE Inhibition (Visual).
Data set [8] concerns Parainfluenza Type 3 Virus. The experiment in a line: organism not typed. The data set is classed as cell-based, Parainfluenza type 3 virus strain 14702. To be noted: MA104, read-out: EC50, Parainfluenza Type 3 Virus.
Data set [9] relates to Influenza A (H1N1). Nature of the data set: microbe, parasite or virus in culture. The data set is classed as cell-based. To be noted: Influenza A virus, H1N1, MDCK; Initial Test, CPE Inhibition (Visual).
For data set [10], the system named is Influenza A (H1N1). The experiment in a line: microbe, parasite or virus in culture. In kind it is cell-based. To be noted: Initial Test, Neutral Red.
Data set [11] deals with Influenza B. Nature of the data set: microbe, parasite or virus in culture. In kind it is cell-based. To be noted: Influenza B virus, MDCK; Initial Test, Neutral Red.
In data set [12] the test system is Parainfluenza Type 3 Virus. The experiment in a line: organism not typed. The data set is classed as cell-based. To be noted: Initial Test, Neutral Red.
Data set [13] deals with Respiratory Syncytial Virus A. The experiment in a line: microbe, parasite or virus in culture. To be noted: Initial Test, Neutral Red. The data set is classed as cell-based.
[14] abbreviates: Vero (African green monkey kidney cell line), MTT assay, incubation 3-5 days, read-out: Toxicity IC50.
The mark [15] stands for this setting: PBM (human peripheral blood mononuclear cells), MTT assay, incubation 3-5 days, read-out: Toxicity IC50.
Where [16] appears, read: CEM (human T-cell lymphoma cell line), MTT assay, incubation 3-5 days, read-out: Toxicity IC50.
[17] abbreviates: SUDHL-1 (human anaplastic large T-cell lymphoma cell line), read-out: Toxicity IC50.
[18] abbreviates: BL41 (human B-cell lymphoma cell line), read-out: Toxicity IC50.
[19] abbreviates: H9 (human T-cell lymphoblast cell line), read-out: Toxicity IC50.
The mark [20] stands for this setting: HEPG2 (human liver carcinoma cell line), read-out: Toxicity IC50.
Setting [21] is: JY (human B-cell lymphoma cell line, EBV transformed), read-out: Toxicity IC50.
Setting [22] is: LNCaP (human prostate adenocarcinoma cell line), read-out: Toxicity IC50.
Setting [23] is: MCF-7 (human breast carcinoma cell line), read-out: Toxicity IC50.
[24] abbreviates: SK-MEL-28 (human melanoma cell line), read-out: Toxicity IC50.
Where [25] appears, read: SK-MES-1 (human lung squamous carcinoma cell line), read-out: Toxicity IC50.
[26] abbreviates: SupT1 (human T-cell lymphoblast cell line), read-out: Toxicity IC50.

Where two headings read alike, the source gives them in different places. Some results are limits rather than exact numbers.

For the molecule `Nc1ccn([C@@H]2O[C@H](CO)[C@@H](O)[C@@H]2O)c(=O)n1` [Ara-C, reference compound], the IC50 was determined as 0.8 µM with Vero cells (setting [14]), 7 µM with PBM cells (setting [15]), 0.6 µM in the data set on CEM cells (setting [16]) and 3.7 µM in data set [1] (setting [17]).

Take `Nc1nc(=O)n([C@@H]2C[C@H](CO)[C@@H](O)[C@H]2O)cc1F` [β-D-GA]: the IC50 in the data set on Vero cells is above 57.4 µM; in the data set on Vero cells (setting [14]) it was above 100 µM; in the data set with PBM cells, above 100 µM; in the data set on PBM cells (setting [15]) it was above 100 µM; with CEM cells, 1.9 µM; with CEM cells (setting [16]), 2.9 µM. For the same molecule, the IC50 in [1] (setting [18]) was below 1 µM; in data set [1] (setting [19]), 1.4 µM; in data set [1] (setting [20]) it was above 100 µM; in data set [1] (setting [21]) it was 3 µM; in [1] (setting [22]), 45.7 µM; in [1] (setting [23]), above 100 µM. The IC50 in [1] (setting [24]) is above 100 µM; in data set [1] (setting [25]), above 100 µM; in data set [1] (setting [17]), 0.7 µM; in data set [1] (setting [26]), 0.3 µM. The “Ave. ΔΔCt” value in the data set on HCV replicon (HCV RNA ΔCt minus rRNA ΔCt) amounted to 3.93. Also, the “Ave. HCV RNA ΔCt” value with HCV replicon (HCV replicon in Huh7 cells, average of n) is recorded as 6.04. The “% inhibition at 100 μM, PBM cells” value with PBM cells (100 μM, five day incubation, MTT) worked out at 11.3%. Besides, the “cytotoxic effect on CEM cells, in words” value with CEM cells was “selective cytotoxic effect on CEM cells”. In addition, the “Ave. rRNA ΔCt” value in data set [2] worked out at 2.10. Moreover, the “toxicity in tumor cell panel, in words” value in data set [1] (human malignant T and B cells vs PBM and non-T or B neoplastic cells) is “potent toxicity in human malignant T and B cells, but not in human PBM cells and non-T or B neoplastic cells”. Moreover, the “effectiveness against slow vs fast growing cells, in words” value in [3] (SUDHL-1 and CEM cells) is “equally effective against slower growing SUDHL-1 cells and fast growing CEM cells”.

For `O=c1[nH]cc(F)c(=O)[nH]1` [5FU], the IC50 with Vero cells (setting [14]) was found to be 65 µM; in the data set on PBM cells (setting [15]), 13.7 µM; with CEM cells (setting [16]), 90.5 µM; in [1] (setting [18]), 24.1 µM; in [1] (setting [19]) it was 14.2 µM; in data set [1] (setting [20]) it was 40.6 µM. For the same molecule, the IC50 in data set [1] (setting [21]) stood at 7.5 µM; in data set [1] (setting [22]), 22.1 µM; in data set [1] (setting [23]) it was 43.7 µM; in [1] (setting [24]), 11.2 µM; in data set [1] (setting [25]), 13.1 µM; in [1] (setting [26]) it was 53.6 µM.

On to `C[C@@H]1C[C@@H]([C@H](O)CC2CC(=O)NC(=O)C2)C(=O)[C@@H](C)C1` [cyclo-heximide], for which the IC50 was found to be 2.1 µM in the data set with Vero cells (Chlorocebus sabaeus, Vero, read-out: Toxicity IC50); 2.6 µM in the data set with PBM cells (Homo sapiens, PBMC, read-out: Toxicity IC50); 0.1 µM in the data set on CEM cells (Homo sapiens, CCRF-CEM, read-out: Toxicity IC50); 1 µM in data set [1] (Homo sapiens, B-cell, read-out: Toxicity IC50, H9 (human T-cell lymphoblast cell line)); 0.8 µM in [1] (Homo sapiens, B-cell, read-out: Toxicity IC50, JY (human B-cell lymphoma cell line, EBV transformed)); 0.3 µM in [1] (Homo sapiens, BL-41, read-out: Toxicity IC50, BL41 (human B-cell lymphoma cell line)). In addition, the IC50 worked out at 3.6 µM in data set [1] (Homo sapiens, HepG2, read-out: Toxicity IC50, HEPG2 (human liver carcinoma cell line)); 2.4 µM in [1] (Homo sapiens, LNCaP, read-out: Toxicity IC50, LNCaP (human prostate adenocarcinoma cell line)); 1.5 µM in [1] (Homo sapiens, MCF7, read-out: Toxicity IC50, MCF-7 (human breast carcinoma cell line)); 1 µM in data set [1] (Homo sapiens, SK-MEL-28, read-out: Toxicity IC50, SK-MEL-28 (human melanoma cell line)); 3.4 µM in data set [1] (Homo sapiens, SK-MES-1, read-out: Toxicity IC50, SK-MES-1 (human lung squamous carcinoma cell line)); 0.3 µM in [1] (Homo sapiens, SU-DHL-1, read-out: Toxicity IC50, SUDHL-1 (human anaplastic large T-cell lymphoma cell line)). For the same molecule, the IC50 in data set [1] (Homo sapiens, SUP-T1, read-out: Toxicity IC50, SupT1 (human T-cell lymphoblast cell line)) was 0.6 µM.

Regarding `O=c1[nH]c(=O)n([C@@H]2O[C@H](CO)[C@@H](O)[C@H]2O)cc1O` [β-D-CL, 5-hydroxyuridine], the EC50 in the data set on Influenza A (H3N2) [4] was above 5 µM; in the data set on Influenza A (H3N2) [5] it was above 5 µM; in data set [6] (human respiratory syncytial virus, MA104, read-out: EC50, RSV), 0.5 µM; in the data set with Influenza B [7], above 5 µM; in [8] it was 90 µM; in the data set on Influenza A (H1N1) [9], above 5 µM. The 50% effective concentration (EC50) with Influenza A (H1N1) [10] (Influenza A virus, H1N1, MDCK) was 8 µM; in the data set with Influenza B [11], above 5 µM; in [12] (MA104) it was 40 µM; in data set [13] (human respiratory syncytial virus, MA104), below 0.5 µM. In [6], the “antiviral activity against RSV, in words” value is listed as “potent in-vitro anti-RSV compound”. The “SI (Selectivity Index), RSV” value in data set [6] (Initial Test, CPE Inhibition (Visual)) is reported as 150; in [13], above 170. In addition, in the data set with Influenza A (H1N1) [10], the “SI (Selectivity Index), Influenza A (H1N1)” value is 1.1. For the same molecule, the “SI (Selectivity Index), Parainfluenza Type 3 Virus” value in data set [12] was determined as 1.

On to `Nc1ccn([C@H]2C[C@H](O)[C@@H](CO)O2)c(=O)n1` [2′-Deoxycytidine], for which the “prevention of β-D-GA toxicity, in words” value in data set [3] (50 μM natural nucleoside, SUDHL-1 cells, 3 days, FIG. 4) is “modest preventive activity effect”.

A word on the IC50: it is the concentration that gives 50% inhibition. The % inhibition is the relative decrease from the control value, in per cent. For orientation: EC50 means the concentration at which the effect is half-maximal.

Source of the values: patent US10100076B2, “Modified nucleosides for the treatment of viral infections and abnormal cellular proliferation” (priority 2000, dated 2018).
